These are literature values, as cited in paper PMC4877185 (Molecular imaging and biology : MIB : the official …, 2016).

Data set [1] relates to GLP-1R. To be noted: greater affinity than truncated antagonist exendin-(9–39)-amide.
In data set [2] the test system is GLP-1R. To be noted: read-out: cAMP EC50; unlabeled conjugates, GLP-1R agonist.

As for Exendin-4, the “Binding affinity for GLP-1R relative to exendin-(9–39)-amide” value with GLP-1R [1] was roughly 10 fold.

Take DO3A-VS-Cys^40-exendin-4: the EC50 with GLP-1R [2] is 0.027 nM.

One may read the EC50 as the midpoint of the concentration-response curve.
